Test results from patent US20090018134A1, “Compounds - 945” (AstraZeneca AB, priority 2007, published 2009).
Like-named read-outs stand apart in the source and are kept apart here.

Molecular target: T1, mTOR (Homo sapiens, UniProt P42345)
T1 construct: FLAG; made in house
Assay: In Vitro mTOR Kinase Assay (Echo), Test (a)(ii)
Assay type: biochemical
Excerpt: (a)(ii) In Vitro mTOR Kinase Assay (Echo)
The assay used AlphaScreen technology (Gray et al., Analytical Biochemistry, 2003, 313: 234-245) to determine the ability of test compounds to inhibit phosphorylation by recombinant mTOR.
A C-terminal truncation of mTOR encompassing amino acid residues 1362 to 2549 of mTOR (EMBL Accession No. L34075) was stably expressed as a FLAG-tagged fusion in HEK293 cells as described by Vilella-Bach et al., […], 1999, 274, 4266-4272. The HEK293 FLAG-tagged mTOR (1362-2549) stable cell line was routinely maintained at 37° C. with 5% CO2 up to a confluency of 70-90% in Dulbecco's modified Eagle's growth medium (DMEM; Invitrogen Limited, Paisley, UK Catalogue No. 41966-029) containing 10% heat-inactivated foetal calf serum (FCS; Sigma, Poole, Dorset, UK, Catalogue No. F0392), 1% L-glutamine (Gibco, Catalogue No. 25030-024) and 2 mg/ml Geneticin (G418 sulfate; Invitrogen Limited, UK Catalogue No. 1013 1-027). Following expression in the mammalian HEK293 cell line, expressed protein was purified using the FLAG epitope tag using standard purification techniques.
Aliquots (120 nl […]) of each compound dilution were acoustically dispensed placed using a Labcyte Echo 550 into a well of a Greiner 384-well low volume (LV) white polystyrene plate (Greiner Bio-one).
These assay solutions were incubated for 2 hours at room temperature.
Each reaction was stopped by the addition of […] of a mixture of EDTA (50 mM), bovine serum albumin (BSA; 0.5 mg/mL) and Tris-HCl pH 7.4 buffer (50 mM) containing p70 S6 Kinase (T389) 1A5 Monoclonal Antibody (Cell Signalling Technology, Catalogue No. 9206B) and AlphaScreen Streptavidin donor and Protein A acceptor beads (200 ng; Perkin Elmer, Catalogue No. 6760002B and 6760137R respectively) were added and the assay plates were left overnight at room temperature in the dark. The resultant signals arising from laser light excitation at 680 nm were read using a Packard Envision instrument.
The phosphorylated biotinylated peptide that is associated with AlphaScreen Streptavidin donor beads forms a complex with the p70 S6 Kinase (T389) 1A5 Monoclonal Antibody that is associated with Alphascreen Protein A acceptor beads. Upon laser light excitation at 680 nm, the donor bead: acceptor bead complex produces a signal that can be measured. Accordingly, the presence of mTOR kinase activity results in an assay signal. In the presence of an mTOR kinase inhibitor, signal strength is reduced.
mTOR enzyme inhibition for a given test compound was expressed as an IC50 value.

[1] = table of enzyme assay Test (a)(ii), read-out: Test (a)(ii) IC50
[2] = read-out: mTOR Kinase Assay (Echo)

T1 sequence (P42345 1362-2549): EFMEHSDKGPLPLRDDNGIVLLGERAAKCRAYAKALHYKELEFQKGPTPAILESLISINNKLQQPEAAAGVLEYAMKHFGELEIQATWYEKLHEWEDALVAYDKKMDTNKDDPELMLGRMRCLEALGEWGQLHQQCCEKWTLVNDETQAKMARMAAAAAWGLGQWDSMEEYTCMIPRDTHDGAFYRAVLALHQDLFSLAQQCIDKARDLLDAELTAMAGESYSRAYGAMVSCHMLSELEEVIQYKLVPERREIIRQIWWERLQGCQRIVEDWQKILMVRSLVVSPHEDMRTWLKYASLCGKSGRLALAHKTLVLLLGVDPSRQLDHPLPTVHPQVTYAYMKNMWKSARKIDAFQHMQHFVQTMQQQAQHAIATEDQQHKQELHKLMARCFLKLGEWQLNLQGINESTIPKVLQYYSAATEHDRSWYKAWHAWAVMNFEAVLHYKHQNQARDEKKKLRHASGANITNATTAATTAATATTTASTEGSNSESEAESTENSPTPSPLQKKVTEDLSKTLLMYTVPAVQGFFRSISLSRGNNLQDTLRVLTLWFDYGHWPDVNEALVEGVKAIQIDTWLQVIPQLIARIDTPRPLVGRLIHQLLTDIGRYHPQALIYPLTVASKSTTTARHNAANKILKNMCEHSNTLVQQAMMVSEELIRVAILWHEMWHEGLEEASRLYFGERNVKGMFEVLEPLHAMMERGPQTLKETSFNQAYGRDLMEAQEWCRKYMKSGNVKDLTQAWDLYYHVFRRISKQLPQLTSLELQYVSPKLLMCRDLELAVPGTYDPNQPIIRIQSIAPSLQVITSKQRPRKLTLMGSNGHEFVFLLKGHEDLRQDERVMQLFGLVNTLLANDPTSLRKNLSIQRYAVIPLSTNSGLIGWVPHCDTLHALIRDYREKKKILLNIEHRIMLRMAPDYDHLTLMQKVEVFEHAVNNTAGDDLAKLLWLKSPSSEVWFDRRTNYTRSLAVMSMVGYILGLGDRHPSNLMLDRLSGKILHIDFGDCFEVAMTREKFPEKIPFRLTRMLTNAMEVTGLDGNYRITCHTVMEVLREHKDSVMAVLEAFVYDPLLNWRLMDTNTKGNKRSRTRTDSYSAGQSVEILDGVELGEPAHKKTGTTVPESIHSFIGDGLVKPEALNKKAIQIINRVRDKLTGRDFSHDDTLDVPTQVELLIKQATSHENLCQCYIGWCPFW

## C[C@H]1COCCN1c1cc(C2(S(=O)(=O)c3ccc(F)cc3)CC2)nc(-c2ccc(NC(=O)Nc3cnn(C)c3)nc2)n1 [Example 14m, 1-[5-[4-[1-(4-fluorophenyl)sulfonylcyclopro-pyl]-6-[(3S)-3-methylmorpholin-4-yl]pyrimidin-2-yl]pyridin-2-yl]-3-(1-methylpyrazol-4-yl)urea]
[1]
  IC50: 14.3 nM

## CC(C)NC(=O)Nc1ccc(-c2nc(N3CCOC[C@@H]3C)cc(C3(S(C)(=O)=O)CC3)n2)cc1 [Example 2j, 1-[4-[4-[(3S)-3-methylmorpholin-4-yl]-6-(1-methylsulfonylcyclopropyl)pyrimidin-2-yl]phenyl]-3-propan-2-yl-urea]
[2]
  IC50: 12 nM

## C[C@H]1COCCN1c1cc(C2(S(=O)(=O)CCCO)CCC2)nc(-c2ccc(NC(=O)NCCO)cc2)n1 [Example 43b, 3-(2-hydroxyethyl)-1-[4-[4-[1-(3-hydroxypropylsulfonyl)cyclobu-tyl]-6-[(3S)-3-methylmorpholin-4-yl]pyrimidin-2-yl]phenyl]urea]
[1]
  IC50: 7.51 nM

## CC(C)CNC(=O)Nc1ccc(-c2nc(N3CCOC[C@@H]3C)cc(C3(S(C)(=O)=O)CC3)n2)cc1 [Example 2l, 1-[4-[4-[(3S)-3-methylmorpholin-4-yl]-6-(1-methylsulfonylcyclopropyl)pyrimidin-2-yl]phenyl]-3-(2-methylpropyl)urea]
[2]
  IC50: 11.6 nM

## C[C@H]1COCCN1c1cc(C2(S(=O)(=O)c3ccc(F)c(F)c3)CC2)nc(-c2ccc(NC(=O)NC3CC3)cc2)n1 [Example 64i, 3-cyclopropyl-1-[4-[4-[1-(3,4-difluorophenyl)sulfonylcyclopro-pyl]-6-[(3S)-3-methylmorpholin-4-yl]pyrimidin-2-yl]phenyl]urea]
[1]
  IC50: 1.35 nM

## CNC(=O)Nc1ccc(-c2nc(N3CCOCC3)cc(C3(S(=O)(=O)c4ccccn4)CC3)n2)cc1 [Example 56a, 3-methyl-1-[4-[4-morpholin-4-yl-6-(1-pyridin-2-ylsulfonylcyclopropyl)pyrimidin-2-yl]phenyl]urea]
[1]
  IC50: 2.26 nM

## Cc1csc(S(=O)(=O)C2(c3cc(N4CCOC[C@@H]4C)nc(-c4ccc(NC(=O)NCCN(C)C)cc4)n3)CC2)n1 [Example 25f, 3-(2-dimethylaminoethyl)-1-[4-[4-[(3S)-3-methylmorpholin-4-yl]-6-[1-[(4-methyl-1,3-thiazol-2-yl)sulfonyl]cyclopropyl]pyrimidin-2-yl]phenyl]urea]
[1]
  IC50: 54.7 nM

## C[C@H]1COCCN1C(=O)C1(c2cc(N3CCOCC3)nc(-c3ccc(NC(=O)NC4CC4)cc3)n2)CC1 [Example 33a, 3-cyclopropyl-1-[4-[4-[1-[(3S)-3-methylmorpholine-4-carbonyl]cyclopropyl]-6-morpholin-4-ylpyrimidin-2-yl]phenyl]urea]
[1]
  IC50: 58.4 nM

## C[C@H]1COCCN1c1cc(C2(S(=O)(=O)C3CC3)CC2)nc(-c2ccc(NC(=O)NCc3ncc[nH]3)cc2)n1 [Example 64v, 1-[4-[4-(1-cyclopropylsulfonylcyclopropyl)-6-[(3S)-3-methylmorpholin-4-yl]pyrimidin-2-yl]phenyl]-3-(1H-imidazol-2-ylmethyl)urea]
[1]
  IC50: 146 nM

## C[C@H]1COCCN1c1cc(C2(S(=O)(=O)CCC(C)(C)O)CC2)nc(-c2ccc(NC(=O)NCCO)cc2)n1 [Example 79b, 3-(2-hydroxyethyl)-1-[4-[4-[1-(3-hydroxy-3-methylbutyl)sulfonylcyclopropyl]-6-[(3S)-3-methylmorpholin-4-yl]pyrimidin-2-yl]phenyl]urea]
[1]
  IC50: 10.9 nM

## CCS(=O)(=O)C1(c2cc(N3CCOC[C@@H]3C)nc(-c3ccc(NC(=O)Nc4ccccn4)cc3)n2)CC1 [Example 11l, 1-[4-[4-(1-ethylsulfonylcyclopropyl)-6-[(3S)-3-methylmorpholin-4-yl]pyrimidin-2-yl]phenyl]-3-pyridin-2-yl-urea]
[2]
  IC50: 3.56 nM

## Cc1csc(S(=O)(=O)C2(c3cc(N4CCOCC4)nc(-c4ccc(NC(=O)NCCO)cc4)n3)CC2)n1 [Example 42a, 3-(2-hydroxyethyl)-1-[4-[4-[1-[(4-methyl-1,3-thiazol-2-yl)sulfonyl]cyclopropyl]-6-morpholin-4-ylpyrimidin-2-yl]phenyl]urea]
[1]
  IC50: 2.61 nM
